Legend:
Type in all cases: in vivo
[1] = system: johnsongrass (Sorghum halepense); experiment: Test E preemergence; conditions: scale 0 to 100
Outline: (§1)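 Preemergence: seeds in silt loam treated with compound in non-phytotoxic solvent with surfactant. Postemergence: plants at 1- to 4-leaf stage (2–18 cm) in peat-based medium sprayed likewise. Greenhouse 14–21 days, then visual rating vs controls, 0 (no effect) to 100 (complete control).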

[2] = system: Surinam grass (Brachiaria decumbens); experiment: Test E preemergence; conditions: scale 0 to 100
Outline: as §1

[3] = system: wild poinsettia (Euphorbia heterophylla); experiment: Test E preemergence; conditions: scale 0 to 100
Outline: as §1

[4] = system: horseweed (Conyza canadensis); experiment: Test E preemergence; conditions: 31 g ai/ha, scale 0 to 100
Outline: as §1

[5] = system: field bindweed (Convolvulus arvensis); experiment: Test E preemergence; conditions: scale 0 to 100
Outline: as §1

kochia (Kochia scoparia) = experiment: Test E preemergence; conditions: scale 0 to 100
Outline: as §1

[6] = system: palmer pigweed (Amaranthus palmeri); experiment: Test E preemergence; conditions: scale 0 to 100
Outline: as §1

[7] = system: hairy beggarticks (Bidens pilosa); experiment: Test E postemergence; conditions: scale 0 to 100
Text: (§2) Seeds of plant species selected from corn (Zea mays), soybean (Glycine max), velvetleaf (Abutilon theophrasti), cocklebur (common cocklebur, Xanthium strumarium), lambsquarters (Chenopodium album), wild poinsettia (Euphorbia heterophylla), palmer pigweed (Amaranthus palmeri), waterhemp (common waterhemp, Amaranthus rudis), surinam grass (Brachiaria decumbens), large (Lg) crabgrass (Digitaria sanguinalis), Brazilian crabgrass (Digitaria horizontalis), fall panicum (Panicum dichotomiflorum), giant foxtail (Setaria faberii), green foxtail (Setaria viridis), goosegrass (Eleusine indica), johnsongrass (Sorghum halepense), ragweed (common ragweed, Ambrosia elatior), barnyardgrass (Echinochloa crus-galli), sandbur (southern sandbur, Cenchrus echinatus), arrowleaf sida (Sida rhombifolia), Italian ryegrass (Lolium multiflorum), dayflower (Virginia (VA) dayflower, Commelina virginica), field bindweed (Convolvulus arvensis), morningglory (Ipomoea coccinea), nightshade (eastern black nightshade, Solanum ptycanthum), kochia (Kochia scoparia), yellow nutsedge (Cyperus esculentus), horseweed (Conyza canadensis), and hairy beggarticks (Bidens pilosa), were planted into a silt loam soil and treated preemergence with test chemicals formulated in a non-phytotoxic solvent mixture which included a surfactant.
(§3) At the same time, plants from these crop and weed species and also waterhemp_RES1, (ALS & Triazine resistant common waterhemp, Amaranthus rudis), and waterhemp_RES2, (ALS & HPPD resistant common waterhemp, Amaranthus rudis) were planted in pots containing Redi-Earth® planting medium (Scotts Company, 14111 Scottslawn Road, Marysville, Ohio 43041) comprising spaghnum peat moss, vermiculite, wetting agent and starter nutrients were treated with postemergence applications of test chemicals formulated in the same manner. Plants ranged in height from 2 to 18 cm for postemergence treatments (1- to 4-leaf stage). Treated plants and controls were maintained in a greenhouse for 14 to 21 days, after which time all species were compared to controls and visually evaluated. Plant response ratings, summarized in Table E, are based on a scale of 0 to 100 where 0 is no effect and 100 is complete control. A dash (-) response means no test result.

[8] = system: dayflower (Virginia (VA) dayflower, Commelina virginica); experiment: Test E postemergence; conditions: scale 0 to 100
Text: as §2, §3

[9] = system: wild poinsettia (Euphorbia heterophylla); experiment: Test E postemergence; conditions: scale 0 to 100
Text: as §2, §3

[10] = system: field bindweed (Convolvulus arvensis); experiment: Test E postemergence; conditions: scale 0 to 100
Text: as §2, §3

[11] = system: waterhemp_RES1 (ALS & Triazine resistant common waterhemp, Amaranthus rudis); experiment: Test E postemergence; conditions: scale 0 to 100
Text: as §2, §3

[12] = system: Brazilian crabgrass (Digitaria horizontalis); experiment: Test E postemergence; conditions: scale 0 to 100
Text: as §2, §3

SMILES: Fc1cccc(Oc2ncc(C(F)(F)F)cn2)c1Oc1ncc(Cl)cn1 [Compound 42, 5-chloro-2-[2-fluoro-6-[[5-(trifluoromethyl)-2-pyrimidinyl]oxy]phenoxy]pyrimidine]
- Plant response rating, Johnsongrass ([1]; 16 g ai/ha): 80
- Plant response rating, Johnsongrass ([1]; 31 g ai/ha): 80
- Plant response rating, Johnsongrass ([1]; 62 g ai/ha): 95
- Plant response rating, Johnsongrass ([1]; 125 g ai/ha): 100
- Plant response rating, Surinam Grass ([2]; 16 g ai/ha): 0
- Plant response rating, Surinam Grass ([2]; 31 g ai/ha): 0
- Plant response rating, Surinam Grass ([2]; 62 g ai/ha): 40
- Plant response rating, Surinam Grass ([2]; 125 g ai/ha): 85
- Plant response rating, Poinsettia, Wild ([3]; 16 g ai/ha): 20
- Plant response rating, Poinsettia, Wild ([3]; 31 g ai/ha): 20
- Plant response rating, Poinsettia, Wild ([3]; 62 g ai/ha): 80
- Plant response rating, Poinsettia, Wild ([3]; 125 g ai/ha): 100
- Plant response rating, Horseweed [4]: 0
- Plant response rating, Field Bindweed ([5]; 16 g ai/ha): 25
- Plant response rating, Field Bindweed ([5]; 31 g ai/ha): 20
- Plant response rating, Field Bindweed ([5]; 62 g ai/ha): 40
- Plant response rating, Field Bindweed ([5]; 125 g ai/ha): 85
- Plant response rating, Kochia (kochia (Kochia scoparia); 16 g ai/ha): 80
- Plant response rating, Kochia (kochia (Kochia scoparia); 31 g ai/ha): 90
- Plant response rating, Kochia (kochia (Kochia scoparia); 62 g ai/ha): 100
- Plant response rating, Kochia (kochia (Kochia scoparia); 125 g ai/ha): 100
- Plant response rating, Pigweed, Palmer ([6]; 16 g ai/ha): 60
- Plant response rating, Pigweed, Palmer ([6]; 31 g ai/ha): 70
- Plant response rating, Pigweed, Palmer ([6]; 62 g ai/ha): 80
- Plant response rating, Pigweed, Palmer ([6]; 125 g ai/ha): 100
- Plant response rating, Beggarticks ([7]; 16 g ai/ha): 50
- Plant response rating, Beggarticks ([7]; 31 g ai/ha): 60
- Plant response rating, Beggarticks ([7]; 62 g ai/ha): 60
- Plant response rating, Beggarticks ([7]; 125 g ai/ha): 70
- Plant response rating, Dayflower, VA ([8]; 16 g ai/ha): 35
- Plant response rating, Dayflower, VA ([8]; 31 g ai/ha): 50
- Plant response rating, Dayflower, VA ([8]; 62 g ai/ha): 70
- Plant response rating, Dayflower, VA ([8]; 125 g ai/ha): 75
- Plant response rating, Poinsettia, Wild ([9]; 16 g ai/ha): 50
- Plant response rating, Poinsettia, Wild ([9]; 31 g ai/ha): 60
- Plant response rating, Poinsettia, Wild ([9]; 62 g ai/ha): 70
- Plant response rating, Poinsettia, Wild ([9]; 125 g ai/ha): 70
- Plant response rating, Field Bindweed ([10]; 16 g ai/ha): 40
- Plant response rating, Field Bindweed ([10]; 31 g ai/ha): 50
- Plant response rating, Field Bindweed ([10]; 62 g ai/ha): 60
- Plant response rating, Field Bindweed ([10]; 125 g ai/ha): 70
- Plant response rating, Waterhemp_RES1 ([11]; 16 g ai/ha): 60
- Plant response rating, Waterhemp_RES1 ([11]; 31 g ai/ha): 75
- Plant response rating, Waterhemp_RES1 ([11]; 62 g ai/ha): 75
- Plant response rating, Waterhemp_RES1 ([11]; 125 g ai/ha): 90
- Plant response rating, Crabgrass, Brazil ([12]; 16 g ai/ha): 10
- Plant response rating, Crabgrass, Brazil ([12]; 31 g ai/ha): 10
- Plant response rating, Crabgrass, Brazil ([12]; 62 g ai/ha): 20
- Plant response rating, Crabgrass, Brazil ([12]; 125 g ai/ha): 30
